Results from PMC6269819, “Evaluation of the Biological Activity of Naturally Occurring 5,8-Dihydroxycoumarin” (Molecules, 2013).
Marks after values point to notes of the source that are not given here.

Key:
human lymphocytes = assay: Chromosome aberrations in human lymphocyte cultures in vitro; assay type: cell-based; conditions: for CA per 100 cells (±S.E.M.): 24 h treatment, pooled two donors
Method: Blood samples were taken from two healthy female volunteers (donor A) and (donor B). Whole peripheral blood was grown in HEPES-buffered RPMI 1640 medium supplemented with 12% heat-inactivated newborn calf serum, 7.8 μg/mL phytohemagglutinin P, 50 μg/mL gentamycin, 10 μg/mL 5-bromo-2'-deoxyuridine. All reagents used for the cell culture were purchased from Sigma-Aldrich Chemical Co. (St. Louis, MO, USA). Cell cultures were incubated at 37 °C for 72 h. Treatment with test compounds was carried out 48 h after culture initiation and lasted for the period of 24 h. Dose range of 5,8-DHC (10 to 40 µg/mL) was based on pilot experiments (data not shown). As whole blood cultures display many properties common with the liver microsomal cytochrome P450 system, no external metabolising enzymes were added. 5,8-DHC was dissolved in ethanol and then diluted with RPMI 1640 medium to the desired concentration. Ethanol in a final concentration of 7.5µL/mL was used as a solvent control. […] Working solutions were made just before treatment. Two parallel cultures were used for each concentration of the compound tested. Two cultures were left untreated and served as a blank control. Methyl methanesulfonate (MMS) in a final concentration of 0.02 μL/mL was used as a positive control. The cultures were exposed to colchicine at a final concentration of 0.6 μg/mL for the last 3 h of incubation. The cells were harvested, hypotonically swollen in 0.075 M KCl and fixed in methanol: acetic acid (3:1). Air-dried slides were differentially stained by fluorescence plus Giemsa technique as has been described previously. Briefly, the slides were stained for 10 min. with 10 μg/mL of Hoechst 33258 dye (dissolved in 0.07 M Soerensen’s buffer, pH 6.8). Then the slides were rinsed, mounted with citrate buffer (pH 8.5), covered with cover slips and exposed to UV light (400 W mercury lamp at a distance of 15 cm) for 6–7 min. Slides were then rinsed and stained for 3–4 min. with 5% Giemsa. Cytogenetic analysis was performed on coded slides. No less than 100 first-mitotic division metaphases per culture were analysed for CAs, and no less than 50 second-division metaphases for SCEs.

[1] = Total phenolic compounds (TPC), Folin-Ciocalteu method
Method: The content of TPC was determined by the Folin–Ciocalteu method. Calibration curve was prepared by using 1 mL reference gallic acid solutions in ethanol (0.025, 0.075, 0.100, 0.175 and 0.350 mg/mL), which were mixed with 5 mL of a standard Folin-Ciocalteu reagent and diluted with distilled water (1:10) and 4 mL of 7.5% sodium carbonate solution in distilled water. The absorption was read after 30 min at 765 nm. The concentration of TPC was expressed in mg of gallic acid equivalents (GAE) per 1 g. The TPC was calculated by the following formula: C = c × V/m (2) where C is the concentration of gallic acid, determined form the calibration curve (mg/mL); V is the volume of 5,8-DHC solution (100 mL); m is the weight of 5,8-DHC (g).

[2] = tested on: Wistar rat bone marrow cells; assay: Chromosome aberration in vivo assay in rat bone marrow
Text: Male albino Wistar rats aged 8–10 weeks and having body weight of 200–220 g, were used in the present study. The animals were supplied by the Animal Facility of the Department of Immunology, State Research Institute Center for Innovative Medicine. Ethical approval was given by the Committee of the Lithuanian Animal Care and Use. Prior to the start of the study, the animals were acclimatized for 7 days. They were housed under conditions of constant temperature, humidity and a light/dark cycle of 12 h/12 h with free access to standard commercial pellet diet and drinking water. The animals were randomly distributed into 11 experimental groups of six rats each.
We used a mixture of dimethylsulfoxide (DMSO) and sunflower oil (1:2) as the vehicle for 5,8-DHC (5,8-DHC was dissolved in DMSO and adjusted to the desired dose with sunflower oil immediately before administration). For the acute treatment, the animals received single intraperitoneal (i.p.) injections of 10 or 20 mg/kg of 5,8-DHC in 1 mL volume per 100 g body weight (b.w.). The negative control group comprised animals, given a single i.p. injection of vehicle (1 mL/100 g b.w.) and the positive control group, given cyclophosphamide (CP, 30 mg/kg adjusted in 0.5 mL/100 g b.w. in sterile physiological saline). A commercial form of cyclophosphamide was used (‘Endoxan’, ASTA Medica AG, Frankfurt, Germany). Blank controls comprised untreated animals. For the repeated treatment, 5,8-DHC (10 or 20 mg/kg) or vehicle was administered via gavage (1 mL/100 g b.w.) once a day for 3 consecutive days. Animals were sacrificed 24 h or 48 h after the last dose administration. Colchicine was applied i.p. at a dose of 2 mg/kg b.w. in 1 mL volume 90 min before sacrifice. Both femurs were dissected from each animal and used to obtain bone marrow preparations for the analysis of chromosome aberrations and micronucleus.
Bone marrow cells were flushed from the femora with 0.55% potassium chloride hypotonic solution, incubated for 25 min at 37 °C and then centrifuged at 150 × g for 8 min. Cells were fixed in methanol-glacial acetic acid (3:1). Slides were prepared by a flame-drying procedure and then stained with 5% Giemsa stain. Slides were coded and scored blind by the single scorer at a magnification of 1500× (Nikon ECLIPSE E200, Tokyo, Japan). Only well-spread metaphases with 42 ± 1 chromosomes were used for the analysis. The frequencies of CAs were estimated in 100 metaphases per animal. Aberrations were recorded as individual types according to J.R. Savage’s classification but for convenience were grouped as chromatid breaks (ctb), chromatid exchanges (cte), chromosome breaks (csb) and chromosome exchanges (cse). Gaps were counted but not included into statistical analysis.

[3] = Signs of systemic toxicity and mortality in treated rats

O=c1ccc2c(O)ccc(O)c2o1 [5,8-DHC, 5,8-Dihydroxycoumarin]
CA per 100 cells (±S.E.M.) (human lymphocytes; 10 µg/mL): 1.5 ± 0.9 per 100 cells
CA per 100 cells (±S.E.M.) (human lymphocytes; 15 µg/mL): 3.0 ± 1.2 per 100 cells
CA per 100 cells (±S.E.M.) (human lymphocytes; 20 µg/mL): 3.5 ± 1.3 per 100 cells
CA per 100 cells (±S.E.M.) (human lymphocytes; 25 µg/mL): 6.5 ± 1.7 per 100 cells
CA per 100 cells (±S.E.M.) (human lymphocytes; 30 µg/mL): 7.0 ± 1.8 per 100 cells
CA per 100 cells (±S.E.M.) (human lymphocytes; 35 µg/mL): 7.0 ± 1.8 per 100 cells
CA per 100 cells (±S.E.M.) (human lymphocytes; 40 µg/mL): 9.5 ± 2.1 ^b per 100 cells
concentration giving statistically significant increase of CAs (human lymphocytes; highest concentration only): 40000 ng/mL
content of total phenols (TPC) [1]: 581.0 ± 0.0 mg gallic acid equivalents (GAE) in 1 g
increase of CAs compared with vehicle controls ([2]; all 5,8-DHC treated animals): No increase of CAs
Aberrant metaphases (%± S.E.M.) ([2]; repeated gavage 3 × 10 mg/kg b.w., sacrifice 48 h): 1.17 ± 0.17%
Aberrant metaphases (%± S.E.M.) ([2]; repeated gavage 3 × 20 mg/kg b.w., sacrifice 48 h): 2.43 ± 0.37%
Aberrant metaphases (%± S.E.M.) ([2]; single i.p. 10 mg/kg b.w., sacrifice 24 h): 2.33 ± 0.49%
Aberrant metaphases (%± S.E.M.) ([2]; single i.p. 10 mg/kg b.w., sacrifice 48 h): 1.67 ± 0.56%
Aberrant metaphases (%± S.E.M.) ([2]; single i.p. 20 mg/kg b.w., sacrifice 24 h): 1.00 ± 0.36%
Aberrant metaphases (%± S.E.M.) ([2]; single i.p. 20 mg/kg b.w., sacrifice 48 h): 2.60 ± 0.68%
signs of systemic toxicity ([3]; 20 mg/kg b.w., at 2–3 h after dose administration): sluggishness was observed in all rats
time to death after administration ([3]; i.p. injection 100 mg/kg): 3 to 4 h
toxicity and mortality ([3]; i.p. injection 100 mg/kg): sluggishness and death of all treated animals
signs of systemic toxicity ([3]; repeated treatment with 10 mg/kg b.w., since second dose administration): sluggishness
